Test results reported in ChEMBL document CHEMBL3885861, “Open TG-GATES”.

Organism: Rattus norvegicus
Test: Open TG-GATES - Regimen: Daily Repeat
Assay type: toxicity, organism-based, Sprague-Dawley
Set-up: regimen Daily Repeat, gender Male, age 6 weeks
Conditions: in vivo, po, 5 mg/kg, route gavage, dose level Low; for APTT / Bas / Eos / Fbg / Hb / Ht / Lym / MCH / MCHC / MCV / Mono / Neu / PT / Plat / RBC / Ret / WBC: tissue Blood; for KIDNEY_L / KIDNEY_R / KIDNEY_TOTAL: tissue Kidney; for LIVER: tissue Liver; for A/G / ALP / ALT / AST / BUN / CRE / Ca / Cl / DBIL / GLC / IP / K / LDH / Na / PL / RALB / TBIL / TC / TG / TP / gamma-GTP: tissue Plasma

Question: What does the source list for CC1=C(CC(=O)O)c2cc(F)ccc2/C1=C\c1ccc([S+](C)[O-])cc1 (configuration not stated)?
Answer: TERMINAL_BW (72 h, time 3 day): 233.7 g; APTT (72 h, time 3 day): 15.8 s; Bas (72 h, time 3 day): 0%; Eos (72 h, time 3 day): 1%; Fbg (72 h, time 3 day): 306.2 mg/dL; Hb (72 h, time 3 day): 14.4 g/dL; Ht (72 h, time 3 day): 42.7%; Lym (72 h, time 3 day): 72.4%; MCH (72 h, time 3 day): 21.2 pg; MCHC (72 h, time 3 day): 33.8%; MCV (72 h, time 3 day): 62.7 fL; Mono (72 h, time 3 day): 2.4%; Neu (72 h, time 3 day): 23.8%; PT (72 h, time 3 day): 13.7 s; Plat (72 h, time 3 day): 128.2 x10_4/uL; RBC (72 h, time 3 day): 681.2 x10_4/ul; Ret (72 h, time 3 day): 6.8%; WBC (72 h, time 3 day): 91.3 x10_2/uL; KIDNEY_L (72 h, time 3 day): 1 g; KIDNEY_R (72 h, time 3 day): 1 g; KIDNEY_TOTAL (72 h, time 3 day): 1.9 g; LIVER (72 h, time 3 day): 11.2 g; A/G (72 h, time 3 day): 0.9; ALP (72 h, time 3 day): 1483.6 IU/L; ALT (72 h, time 3 day): 40.6 IU/L; AST (72 h, time 3 day): 67.8 IU/L; BUN (72 h, time 3 day): 15.2 mg/dL; CRE (72 h, time 3 day): 0.2 mg/dL; Ca (72 h, time 3 day): 11.1 mg/dL; Cl (72 h, time 3 day): 106.2 meq/L; DBIL (72 h, time 3 day): 0.01 mg/dL; GLC (72 h, time 3 day): 177 mg/dL; IP (72 h, time 3 day): 7.3 mg/dL; K (72 h, time 3 day): 4.2 meq/L; LDH (72 h, time 3 day): 76 IU/L; Na (72 h, time 3 day): 142 meq/L; PL (72 h, time 3 day): 168.2 mg/dL; RALB (72 h, time 3 day): 2.7 g/dL; TBIL (72 h, time 3 day): 0.018 mg/dL; TC (72 h, time 3 day): 88 mg/dL; TG (72 h, time 3 day): 121.8 mg/dL; TP (72 h, time 3 day): 5.6 g/dL; gamma-GTP (72 h, time 3 day): 1.2 IU/L; TERMINAL_BW ([…], time 7 day): 272.8 g; TERMINAL_BW ([…], time 14 day): 329.4 g; TERMINAL_BW ([…], time 28 day): 403.3 g; APTT ([…], time 7 day): 18.1 s; Bas ([…], time 7 day): 0%; Eos ([…], time 7 day): 1%; Fbg ([…], time 7 day): 300.2 mg/dL; Hb ([…], time 7 day): 14.2 g/dL; Ht ([…], time 7 day): 41.6%; Lym ([…], time 7 day): 79%; MCH ([…], time 7 day): 21.3 pg; MCHC ([…], time 7 day): 34.2%; MCV ([…], time 7 day): 62.3 fL; Mono ([…], time 7 day): 2%; Neu ([…], time 7 day): 17.4%; PT ([…], time 7 day): 13.7 s; Plat ([…], time 7 day): 134 x10_4/uL; RBC ([…], time 7 day): 667.8 x10_4/ul; Ret ([…], time 7 day): 5.8%; WBC ([…], time 7 day): 93.6 x10_2/uL; APTT ([…], time 14 day): 17.3 s; Bas ([…], time 14 day): 0%; Eos ([…], time 14 day): 1%; Fbg ([…], time 14 day): 321 mg/dL; Hb ([…], time 14 day): 15.5 g/dL; Ht ([…], time 14 day): 45.7%; Lym ([…], time 14 day): 77.2%; MCH ([…], time 14 day): 21.1 pg; MCHC ([…], time 14 day): 34%; MCV ([…], time 14 day): 62.1 fL; Mono ([…], time 14 day): 2.2%; Neu ([…], time 14 day): 18.6%; PT ([…], time 14 day): 13.8 s; Plat ([…], time 14 day): 123.9 x10_4/uL; RBC ([…], time 14 day): 737.2 x10_4/ul; Ret ([…], time 14 day): 4%; WBC ([…], time 14 day): 93.7 x10_2/uL; APTT ([…], time 28 day): 17.8 s; Bas ([…], time 28 day): 0%; Eos ([…], time 28 day): 1.4%; Fbg ([…], time 28 day): 292 mg/dL; Hb ([…], time 28 day): 15.4 g/dL; Ht ([…], time 28 day): 46.5%; Lym ([…], time 28 day): 79%; MCH ([…], time 28 day): 18.6 pg; MCHC ([…], time 28 day): 33.1%; MCV ([…], time 28 day): 56.4 fL; Mono ([…], time 28 day): 2%; Neu ([…], time 28 day): 17.4%; PT ([…], time 28 day): 12.8 s; Plat ([…], time 28 day): 112.3 x10_4/uL; RBC ([…], time 28 day): 826.8 x10_4/ul; Ret ([…], time 28 day): 2.6%; WBC ([…], time 28 day): 97.8 x10_2/uL; KIDNEY_L ([…], time 7 day): 1.2 g; KIDNEY_R ([…], time 7 day): 1.2 g; KIDNEY_TOTAL ([…], time 7 day): 2.3 g; KIDNEY_L ([…], time 14 day): 1.3 g; KIDNEY_R ([…], time 14 day): 1.3 g; KIDNEY_TOTAL ([…], time 14 day): 2.5 g; KIDNEY_L ([…], time 28 day): 1.4 g; KIDNEY_R ([…], time 28 day): 1.4 g; KIDNEY_TOTAL ([…], time 28 day): 2.8 g; LIVER ([…], time 7 day): 13.1 g; LIVER ([…], time 14 day): 14.3 g; LIVER ([…], time 28 day): 16.6 g; A/G ([…], time 7 day): 0.9; ALP ([…], time 7 day): 1462.4 IU/L; ALT ([…], time 7 day): 37.6 IU/L; AST ([…], time 7 day): 67.4 IU/L; BUN ([…], time 7 day): 17.6 mg/dL; CRE ([…], time 7 day): 0.2 mg/dL; Ca ([…], time 7 day): 11 mg/dL; Cl ([…], time 7 day): 104.2 meq/L; DBIL ([…], time 7 day): 0.012 mg/dL; GLC ([…], time 7 day): 183.6 mg/dL; IP ([…], time 7 day): 6.4 mg/dL; K ([…], time 7 day): 4.2 meq/L; LDH ([…], time 7 day): 98 IU/L; Na ([…], time 7 day): 140.6 meq/L; PL ([…], time 7 day): 156.6 mg/dL; RALB ([…], time 7 day): 2.7 g/dL; TBIL ([…], time 7 day): 0.022 mg/dL; TC ([…], time 7 day): 78.8 mg/dL; TG ([…], time 7 day): 122.4 mg/dL; TP ([…], time 7 day): 5.8 g/dL; gamma-GTP ([…], time 7 day): 1 IU/L; A/G ([…], time 14 day): 0.9; ALP ([…], time 14 day): 1448 IU/L; ALT ([…], time 14 day): 40 IU/L; AST ([…], time 14 day): 65.6 IU/L; BUN ([…], time 14 day): 16.4 mg/dL; CRE ([…], time 14 day): 0.2 mg/dL; Ca ([…], time 14 day): 11 mg/dL; Cl ([…], time 14 day): 105.4 meq/L; DBIL ([…], time 14 day): 0.01 mg/dL; GLC ([…], time 14 day): 177.2 mg/dL; IP ([…], time 14 day): 6.2 mg/dL; K ([…], time 14 day): 3.6 meq/L; LDH ([…], time 14 day): 62.4 IU/L; Na ([…], time 14 day): 143 meq/L; PL ([…], time 14 day): 163 mg/dL; RALB ([…], time 14 day): 2.8 g/dL; TBIL ([…], time 14 day): 0.044 mg/dL; TC ([…], time 14 day): 74.6 mg/dL; TG ([…], time 14 day): 153.8 mg/dL; TP ([…], time 14 day): 6 g/dL; gamma-GTP ([…], time 14 day): 1 IU/L; A/G ([…], time 28 day): 0.8; ALP ([…], time 28 day): 1234.6 IU/L; ALT ([…], time 28 day): 34.4 IU/L; AST ([…], time 28 day): 63.8 IU/L; BUN ([…], time 28 day): 17.4 mg/dL; CRE ([…], time 28 day): 0.3 mg/dL; Ca ([…], time 28 day): 10.6 mg/dL; Cl ([…], time 28 day): 103.8 meq/L; DBIL ([…], time 28 day): 0.014 mg/dL; GLC ([…], time 28 day): 187 mg/dL; IP ([…], time 28 day): 6.4 mg/dL; K ([…], time 28 day): 3.6 meq/L; LDH ([…], time 28 day): 72.8 IU/L; Na ([…], time 28 day): 142.8 meq/L; PL ([…], time 28 day): 164.8 mg/dL; RALB ([…], time 28 day): 2.8 g/dL; TBIL ([…], time 28 day): 0.08 mg/dL; TC ([…], time 28 day): 77.8 mg/dL; TG ([…], time 28 day): 195 mg/dL; TP ([…], time 28 day): 6.4 g/dL; gamma-GTP ([…], time 28 day): 1 IU/L
